Laboratory results published in US20050215634A1 (priority 2003, published 2005).
Like-named read-outs stand apart in the source and are kept apart here.

Experiments:
[1] = test system: rabbit RBCs; assay: Streptolysin O-induced hemolysis on RBC agar plates; format: cell-based; details: GML 10 μg/ml in agar, Group A Streptococci stabbed into agar
Experimental: GML (10 μg/ml) was incorporated into culture plates containing solid agar and rabbit RBCs suspended in the agar. The effect of GML on streptolysin O-induced hemolysis was tested by stabbing the Group A Streptococci into the agar so as to permit the anaerobic growth of the bacteria beneath the surface of the agar and thereby allow streptolysin O to function.

[2] = test system: rabbit RBCs; assay: Streptolysin S-induced hemolysis on RBC agar plates; format: cell-based; details: rabbit blood agar plates containing GML, surface culture of Group A Streptococci
Experimental: The effect of GML on streptolysin S-induced hemolysis was assayed by direct culturing of Streptococci on the surface of the RBC-containing agar plates.

[3] = test system: HVECs; format: cell-based, human
[4] = test system: HIV-1; format: cell-based
[5] = test system: human PBMC
[6] = GML 20 μg/ml + SPEA 100 μg/ml, 6 hours
[7] = GML 20 μg/ml + TSST-1 100 μg/ml, 6 hours

| Compound | Streptolysin O-induced hemolysis of RBCs [1] | Streptolysin S-induced hemolysis [2] | IL-8 (pg/ml ± SE) [3] | MIP-3α (pg/ml ± SE) [3] | IL-8 (pg/ml ± SE) [3, 6] | MIP-3α (pg/ml ± SE) [3, 6] | IL-8 (pg/ml ± SE) [3, 7] | MIP-3α (pg/ml ± SE) [3, 7] | Cells expressing HIV-1 p24 [4] | Cell viability [5] | Total number of cells versus control sample without GML [5] |
| --- | --- | --- | --- | --- | --- | --- | --- | --- | --- | --- | --- |
| CCCCCCCCCCCC(=O)OCC(O)CO (stereo not shown) [GML, glycerol monolaurate] | completely prevented hemolysis | completely inhibited | None Detected | None Detected | None Detected | None Detected | None Detected | None Detected | rare and no cells expressing p24 | preserved | significantly less |
| Ovalbumin [reference compound] |  |  | 36 ± 1.5 pg/mL | 12 ± 1.8 pg/mL |  |  |  |  |  |  |  |
